Results as given in patent US5756066A, “Iodine-containing peptides” (Schering Aktiengesellschaft, priority 1995, dated 1998).

How the values were obtained:
[1] = Blood level in the rat after one-time intravenous injection; type: in vivo; details: one-time i.v. injection, Ultravist 300 mg I/kg, example 4c 200 mg I/kg, especially first 10 minutes, average of three animals, FIG. 1
Method: The blood level in the rat was determined after one-time intravenous injection of 300 mg of I/kg of body weight of Ultravist®[]. and 200 mg of I/kg of body weight of the compound of example 4c [.diamond.]. The data represent the average value from three animals each.

[2] = Elimination from and retention in the body of the rat; type: in vivo

Molecule | blood concentration over time, standardized to the administered dose [1] | route of elimination [2] | elimination from the body ([2]; dose 100 mg of I/kg) | retention in the organs liver, kidney and spleen as well as in the remainder of the body ([2]; dose 100 mg of I/kg, 14 days after administration)
COCC(=O)Nc1c(I)c(C(=O)NCC(O)CO)c(I)c(C(=O)N(C)CC(O)CO)c1I (centres unmarked) [Ultravist, reference compound] | very much more quickly | – | – | –
Octatetracontakis-{3-sodium carboxylatoformylamino-5-(2,3-dihydroxypropylcarbamoyl)-2,4,6-triiodobenzoyl} derivative of the lysine-alanine copolymer (K5)8 K4 K2 K-A--OH [Example 4] | remains very much longer in the blood space | mainly through the kidney | complete elimination | 0.36 % of the dose
